≈ marks a conversion by molar mass, not a printed value. Non-standard residues stand in square brackets, D forms with d. Residues, ends and D or L forms follow the SMILES beside them. dOrn = NCCC[C@@H](N)C(=O)O; Orn = NCCC[C@H](N)C(=O)O
What was measured:
C. albicans = test: Toxicity assessment, MIC against C. albicans; format: cell-based, Candida albicans; settings: Brady lab strain; yeast extract-peptone-dextrose; surrogate for cytotoxicity; duplicate
Description: Wang resins were purchased from Matrix Innovation. Reagents for peptide synthesis were purchased from P3 BioSystems, Chempep, and Chem-Impex International. The fluorescent dyes DiBAC4 and SYTOX were purchased from Thermo Fisher Scientific, and media were prepared from premixed powders: brain heart infusion for S. sobrinus and L. rhamnosus (Hardy Diagnostics), yeast extract-peptone-dextrose for C. albicans, lysogeny broth (LB) for all other bacteria (BD Biosciences), and McCoy’s 5A medium with 10% fetal bovine serum for HT-29 cells (American Type Culture Collection). All other chemicals and consumables were purchased from Sigma-Aldrich and VWR International. Paenimucillin 4F for in vivo studies was purchased from Ontores Biotechnologies as a high-performance liquid chromatography (HPLC)-purified peptide and used as is. Dye assays were performed in a Gen5 microtiter plate reader (Biotek Instruments). […]
Standard susceptibility assays were performed in LB medium in 96-well microtiter plates to determine the MIC by the broth microdilution method in accordance with protocols recommended by Clinical and Laboratory Standards Institute ([35]). Cytotoxicity was assessed using human HT-29 cells based on a similar broth microdilution method ([36]). […] Cell viability was determined by visual inspection.

[1] = Rat cutaneous wound model, tolerability; format: in vivo, Sprague-Dawley rats; settings: uninfected wounded rats, topical 10 mg/ml
Description: The rat cutaneous wound model was used as described previously ([21]). Protocols for animal studies were approved by the Rutgers University Institutional Animal Care and Use Committee. All animals were humanely euthanized at the study endpoint by following the AVMA Guidelines for the Euthanasia of Animals. Immunocompetent Sprague-Dawley female rats (~200 g) were anesthetized by intraperitoneal injection of 100 mg/kg ketamine plus 10 mg/kg xylazine. Using a 1.0-cm-diameter disposable biopsy punch, two symmetrical wounds were created on the dorsum of each rat. A circular gauze dressing 8 mm in diameter was saturated overnight with either vehicle or 4F at 10 mg/ml in sterile centrifuge tubes. To assess tolerability, the rats were weighed daily and observed for wound healing, behavior changes, and visible adverse drug effects for 5 days. To assess efficacy, A. baumannii strain AB5075 was grown overnight and the culture was diluted to provide the challenge inoculum (500 CFU) as 50 μl of bacterial suspension in 0.9% (wt/vol) NaCl. A circular gauze dressing 8 mm in diameter was saturated overnight with vehicle, tetracycline, or 4F at 10 mg/ml in sterile centrifuge tubes. These saturated dressings were topically applied to the wound site with sterile forceps twice daily, starting at 30 min postinoculation, for 6 days. […]

[2] = tested on: MDR A. baumannii strain AB5075; test: Rat cutaneous wound model, efficacy; format: in vivo, Sprague-Dawley rats; settings: rat wound infected with AB5075 (500 CFU), topical 10 mg/ml twice daily
Description: The rat cutaneous wound model was used as described previously ([21]). Protocols for animal studies were approved by the Rutgers University Institutional Animal Care and Use Committee. All animals were humanely euthanized at the study endpoint by following the AVMA Guidelines for the Euthanasia of Animals. Immunocompetent Sprague-Dawley female rats (~200 g) were anesthetized by intraperitoneal injection of 100 mg/kg ketamine plus 10 mg/kg xylazine. Using a 1.0-cm-diameter disposable biopsy punch, two symmetrical wounds were created on the dorsum of each rat. A circular gauze dressing 8 mm in diameter was saturated overnight with either vehicle or 4F at 10 mg/ml in sterile centrifuge tubes. To assess tolerability, the rats were weighed daily and observed for wound healing, behavior changes, and visible adverse drug effects for 5 days. To assess efficacy, A. baumannii strain AB5075 was grown overnight and the culture was diluted to provide the challenge inoculum (500 CFU) as 50 μl of bacterial suspension in 0.9% (wt/vol) NaCl. A circular gauze dressing 8 mm in diameter was saturated overnight with vehicle, tetracycline, or 4F at 10 mg/ml in sterile centrifuge tubes. These saturated dressings were topically applied to the wound site with sterile forceps twice daily, starting at 30 min postinoculation, for 6 days. Rats were observed twice daily for morbidity and possible signs of acute toxicity. Two and four independent cutaneous wounds were tested in tolerability and efficacy assessments, respectively.

A. baumannii [3] = test: Pore formation assay (SYTOX); format: cell-based, Acinetobacter baumannii; settings: 4× MIC (8 μg/ml), SYTOX fluorescence
Klebsiella pneumoniae = format: cell-based; settings: 24 h
Description: (§1) Wang resins were purchased from Matrix Innovation. Reagents for peptide synthesis were purchased from P3 BioSystems, Chempep, and Chem-Impex International. The fluorescent dyes DiBAC4 and SYTOX were purchased from Thermo Fisher Scientific, and media were prepared from premixed powders: brain heart infusion for S. sobrinus and L. rhamnosus (Hardy Diagnostics), yeast extract-peptone-dextrose for C. albicans, lysogeny broth (LB) for all other bacteria (BD Biosciences), and McCoy’s 5A medium with 10% fetal bovine serum for HT-29 cells (American Type Culture Collection). All other chemicals and consumables were purchased from Sigma-Aldrich and VWR International. Paenimucillin 4F for in vivo studies was purchased from Ontores Biotechnologies as a high-performance liquid chromatography (HPLC)-purified peptide and used as is. Dye assays were performed in a Gen5 microtiter plate reader (Biotek Instruments). Liquid chromatography-mass spectrometry (LC-MS) analyses were performed by using an Acquity system (Waters Corporation).
(§2) Standard susceptibility assays were performed in LB medium in 96-well microtiter plates to determine the MIC by the broth microdilution method in accordance with protocols recommended by Clinical and Laboratory Standards Institute ([35]). Cytotoxicity was assessed using human HT-29 cells based on a similar broth microdilution method ([36]). All assays were performed in duplicate. For the cytotoxicity assay, 5,000 HT-29 cells per well were seeded into a microtiter plate and cultured for 24 h at 37°C in a 5% CO2 atmosphere. Peptides were supplemented at concentrations ranging from 128 to 0.5 μg/ml, and the cells were incubated for another 20 h. Growth media were removed, 3-(4,5-dimethylthiazol-2-yl)-2,5-diphenyltetrazolium bromide (MTT) was added to all wells (220 μl per well at 0.5 mg/ml), the mixture was incubated for 4 h, and then the media were discarded. Cell viability was determined by visual inspection.

Streptococcus sobrinus = format: cell-based; settings: 24 h
Description: as §1, §2

Lactobacillus rhamnosus = format: cell-based; settings: 24 h
Description: as §1, §2

Enterococcus faecium = format: cell-based; settings: 24 h
Description: as §1, §2

Enterobacter cloacae = format: cell-based; settings: 24 h
Description: as §1, §2

Bacillus subtilis = format: cell-based; settings: 24 h
Description: as §1, §2

Staphylococcus aureus = format: cell-based; settings: 24 h
Description: as §1, §2

Pseudomonas aeruginosa = format: cell-based; settings: 24 h
Description: as §1, §2

Acinetobacter baumannii = format: cell-based; settings: 24 h
Description: as §1, §2

Enterococcus faecalis = format: cell-based; settings: 24 h
Description: as §1, §2

A. baumannii [4] = test: Membrane depolarization assay (DiBAC4); format: cell-based, Acinetobacter baumannii; settings: 4× MIC (8 μg/ml); DiBAC4 fluorescence at endpoint of assay; polymyxin at 4× MIC
Description: In a membrane depolarization assay ([31]), A. baumannii colonies were scraped off an agar plate and suspended in LB to optical density at 600 nm (OD600) of 0.5 to 0.6. The resulting suspension (1.8 ml) was mixed 9:1 with DiBAC4 (20 μg/ml), incubated at room temperature for 5 min, and monitored at 2-s intervals (excitation/emission, 492/515 nm) for 2 min. Various solutions were added (10 μl) while the fluorescence signal was continually being monitored. Paenimucillin C was tested at final concentrations of 2× and 4× its MIC, and polymyxin B and DMSO were used as positive and negative controls, respectively. The treated cultures were then monitored at 2-s intervals for another 5 min. Pore formation assays ([32]) were performed in the same way, except that Triton X-100 was used as the positive control at a final concentration of 0.25% (wt/vol).

[5] = tested on: MDR A. baumannii strain AB5075; test: microbe, parasite or virus in culture; format: cell-based, Acinetobacter baumannii; settings: MDR strain AB5075, 24 h
Description: as §2

[6] = tested on: A. baumannii clinical isolate 1791; format: cell-based, Acinetobacter baumannii; settings: clinical isolate 1791, 24 h
Description: as §1, §2

[7] = tested on: A. baumannii clinical isolate 1788; format: cell-based, Acinetobacter baumannii; settings: clinical isolate 1788, 24 h
Description: as §1, §2

[8] = tested on: A. baumannii clinical isolate S5; format: cell-based, Acinetobacter baumannii; settings: clinical isolate S5, 24 h
Description: as §1, §2

[9] = tested on: A. baumannii clinical isolate 1797; format: cell-based, Acinetobacter baumannii; settings: clinical isolate 1797, 24 h
Description: as §1, §2

[10] = tested on: A. baumannii clinical isolate 1790; format: cell-based, Acinetobacter baumannii; settings: clinical isolate 1790, 24 h
Description: as §1, §2

[11] = tested on: A. baumannii clinical isolate S3; format: cell-based, Acinetobacter baumannii; settings: clinical isolate S3, 24 h
Description: as §1, §2

[12] = tested on: A. baumannii clinical isolate 1795; format: cell-based, Acinetobacter baumannii; settings: clinical isolate 1795, 24 h
Description: as §1, §2

## CC[C@@H](C)[C@@H](NC(=O)[C@@H](NC(=O)[C@H](CO)NC(=O)[C@H](Cc1ccccc1)NC(=O)[C@@H](CCCN)NC(=O)[C@H](CO)NC(=O)[C@H](CO)NC(=O)[C@@H](Cc1ccccc1)NC(=O)[C@@H](CO)NC(=O)[C@H](NC(=O)[C@@H](CCCN)NC(=O)[C@@H](Cc1ccccc1)NC(C)=O)[C@H](C)CC)C(C)C)C(=O)N[C@@H](CCCN)C(=O)O [4F, paenimucillin C] (Ac-[dF][dOrn][dI][dS][dF]SS[dOrn]FSV[dI][Orn]-OH)
C. albicans
  MIC, toxicity assessment, C. albicans: 128 µg/mL (≈ 84.3 µM)
[1]; 5 days, within normal range due to analgesia, two wounds
  weight loss: ≤ 5%
[1]; observed 5 days
  acute toxicity and change in behavior: Neither acute toxicity nor any change in behavior was seen
[2]
  wound sterilization after 1 day: completely sterilized the wounds
[2]; P < 0.00001
  bacterial burden throughout the 5-day study: 0 CFU
A. baumannii [3]
  pore formation relative to Triton X-100: ~ 75%
Klebsiella pneumoniae
  MIC Klebsiella pneumoniae: 4 µg/mL (≈ 2.64 µM)
Streptococcus sobrinus
  MIC Streptococcus sobrinus: 16 µg/mL (≈ 10.5 µM)
Lactobacillus rhamnosus
  MIC Lactobacillus rhamnosus: 16 µg/mL (≈ 10.5 µM)
Enterococcus faecium
  MIC Enterococcus faecium: 32 µg/mL (≈ 21.1 µM)
Enterobacter cloacae
  MIC Enterobacter cloacae: 32 µg/mL (≈ 21.1 µM)
Bacillus subtilis
  MIC Bacillus subtilis: 16 µg/mL (≈ 10.5 µM)
Staphylococcus aureus
  MIC Staphylococcus aureus: 32 µg/mL (≈ 21.1 µM)
Pseudomonas aeruginosa
  MIC Pseudomonas aeruginosa: 128 µg/mL (≈ 84.3 µM)
Acinetobacter baumannii
  MIC Acinetobacter baumannii: 2 µg/mL (≈ 1.32 µM)
Enterococcus faecalis
  MIC Enterococcus faecalis: 64 µg/mL (≈ 42.2 µM)
A. baumannii [4]
  membrane depolarization relative to polymyxin: ~ 25%
[5]
  in vitro MIC, A. baumannii AB5075: 1 µg/mL
[6]
  MIC for A. baumannii clinical isolate 1791: 2 µg/mL
[7]
  MIC for A. baumannii clinical isolate 1788: 4 µg/mL
[8]
  MIC for A. baumannii clinical isolate S5: 4 µg/mL
[9]
  MIC for A. baumannii clinical isolate 1797: 4 µg/mL
[10]
  MIC for A. baumannii clinical isolate 1790: 4 µg/mL
[11]
  MIC for A. baumannii clinical isolate S3: 4 µg/mL
[12]
  MIC for A. baumannii clinical isolate 1795: 4 µg/mL

Source: publication PMC5784245, “An Optimized Synthetic-Bioinformatic Natural Product Antibiotic Sterilizes Multidrug-Resistant Acinetobacter baumannii-Infected Wounds” (mSphere, 2018)
